Data taken from patent publication US8426406B2, “Glucocorticoid receptor agonist comprising 2,2,4-trimethyl-6-phenyl-1,2-dihydroquinoline derivatives having substituted oxy group” (Santen Pharmaceutical Co., Ltd., priority 2008, dated 2013).

Legend:
[1] = system: IL-6 production induced by lipopolysaccharide (LPS) in human corneal epithelial cells; assay: Evaluation test for GR agonist activity: inhibition of LPS-induced IL-6 production in human corneal epithelial cells (HCE-T); type: cell-based; details: Corneal epithelial cell, 10 μL of 100 μM test compound solution per well, 4 hours incubation, efficacy relative to DEX
In short: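 SV40-immortalized HCE-T cells were treated with test compound (100 μM solution, stock before dilution into well) plus LPS (1 μg/mL solution, likewise pre-dilution) for 4 hours in 10% FBS-DMEM/F12. IL-6 in supernatants was measured by HTRF. Inhibition was calculated relative to LPS-plus-DMSO and no-LPS controls, and efficacy was expressed as % of DEX inhibition.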

[2] = system: choroidal neovascularization (CNV) model in rats; assay: Evaluation test for inhibitory effect of choroidal neovascularization (laser induced CNV model in rats); type: in vivo; details: Brown Norway rats, 1% (w/v) suspension eye drops four times a day or 20 mg/mL subconjunctival injection (route not given), vs vehicle, mean of 7-8 eyes in 4 rats
Procedure: The choroidal neovascularization (CNV) model in rats is known as one of the popular methods for evaluating the CNV inhibitory effect of drugs. This method is reported in Graefe's Arch. Cli. Exp. Ophthalmol., 235, 313-319 (1997). According to this method, the CNV examinations were performed to evaluate the CNV inhibitory effect of test compounds by comparing the incidence rates of CNV in vehicle group (control group) with test compound-treated groups.
For eye drop administration, a 1% (w/v) test compound suspension was prepared by adding 0.5% polysorbate 80/saline to the test compound. For subconjunctival injection, a 20 mg/mL test compound suspension was prepared by adding 0.5% hydrogenated castor oil/saline to the test compound.
1) Brown Norway male rats (7-8 weeks, 140-240 g) were anesthetized with intramuscular injection (1 mL/kg) of the mixed solution (5% ketamine HCl: 2% xylazine HCl=7:1).
2) After mydriasis using tropicamide phenylephrine hydrochloride eye drops (trade name Mydrin P), laser photocoagulation of bruch's membrane in rats was performed with krypton laser photocoagulation machine. Laser irradiation was performed at 8-9 points per eye avoiding thick retinal blood vessels in ocular fundus and focusing on the depth of retina. The conditions were 100 μm spot size, 100 mW power, 0.1 second duration.
3) After laser photocoagulation, photographs of ocular fundus were taken and the laser photocoagulation (laser irradiation) points were confirmed.
1) In case of eye drops administration, a test compound suspension was administrated four times a day from laser irradiation day (the 1st day) to the 8th day. In case of subconjunctival injection, a 50 μL test compound suspension was injected into conjunctivae just after laser irradiation.
2) In vehicle group (control group), 0.5% polysorbate 80/saline or 0.5% hydrogenated castor oil/saline was used instead of a test compound suspension. And the test was performed according to the method 1).
1) 7 days after laser irradiation, 0.1 mL of 10% fluorescein was injected into rat tail vein and fluorescein angiography was performed.
2) When the fluorescent leakage was not detected in the fluorescent angiography, the spot was judged to be a negative spot. When the fluorescent leakage was detected, the spot was judged to be a positive spot. When the fluorescent leakage was detected as a little leakage, two spots were counted as one positive spot.
3) The neovascular incidence rate was calculated according to the equation 1. According to the equation 2, the ratio of neovascular incidence rate in test compound group to vehicle group was calculated. Neovascular incidence rate(%)=(Positive spots/all spots)×100 (Equation 1) Angiogenic inhibition ratio in test compound group(%)=(1−Ax/Ao)×100 (Equation 2)
Ao: Neovascular incidence rate in vehicle group (control group)
Ax: Neovascular incidence rate in test compound group

## COc1cc(OC(=O)c2ccoc2)ccc1-c1ccc2c(c1COc1cc(F)ccc1C)C(C)=CC(C)(C)N2 [Compound 1-25, 5-(5-Fluoro-2-methylphenoxymethyl)-6-[4-(furan-3-ylcarbonyloxy)-2-methoxyphenyl]-2,2,4-trimethyl-1,2-dihydroquinoline]
[1]
  Emax: 83%
[2]
  Angiogenic inhibition ratio (%): 50%

## COc1ccccc1NCc1c(-c2ccc(OC(=O)N3CCOCC3)cc2OC)ccc2c1C(C)=CC(C)(C)N2 [Compound 6-35, 6-[2-Methoxy-4-(morpholin-4-ylcarbonyloxy)phenyl]-5-(2-methoxyphenylaminomethyl)-2,2,4-trimethyl-1,2-dihydroquinoline]
[1]
  Emax: 87%
[2]
  Angiogenic inhibition ratio (%): 26%

## COc1cc(OC(=O)c2cccnc2C)ccc1-c1ccc2c(c1COc1cc(F)ccc1C)C(C)=CC(C)(C)N2 [Compound 1-49, 5-(5-Fluoro-2-methylphenoxymethyl)-6-[2-methoxy-4-(2-methylpyridin-3-ylcarbonyloxy)phenyl]-2,2,4-trimethyl-1,2-dihydroquinoline]
[1]
  Emax: 96%
[2]
  Angiogenic inhibition ratio (%): 23%

## COc1ccc(OC(=O)c2ccco2)cc1-c1ccc2c(c1COc1cc(F)ccc1C)C(C)=CC(C)(C)N2 [Compound 1-17, 5-(5-Fluoro-2-methylphenoxymethyl)-6-[5-(furan-2-ylcarbonyloxy)-2-methoxyphenyl]-2,2,4-trimethyl-1,2-dihydroquinoline]
[1]
  Emax: 84%
[2]
  Angiogenic inhibition ratio (%): 35%

## COc1cc(OC(=O)C(C)C)ccc1-c1ccc2c(c1COc1cc(F)ccc1C)C(C)=CC(C)(C)N2 [Compound 1-14, 5-(5-Fluoro-2-methylphenoxymethyl)-6-(4-isobutyryloxy-2-methoxyphenyl)-2,2,4-trimethyl-1,2-dihydroquinoline]
[1]
  Emax: 79%
[2]
  Angiogenic inhibition ratio (%): 46%

## COc1cc(OS(=O)(=O)C(C)C)ccc1-c1ccc2c(c1COc1cc(F)ccc1C)C(C)=CC(C)(C)N2 [Compound 4-5, 5-(5-Fluoro-2-methylphenoxymethyl)-6-(4-isopropylsulfonyloxy-2-methoxyphenyl)-2,2,4-trimethyl-1,2-dihydroquinoline]
[1]
  Emax: 90%
[2]
  Angiogenic inhibition ratio (%): 38%

## COc1ccc([N+](=O)[O-])cc1OCc1c(-c2ccc(OS(=O)(=O)C3CC3)cc2OC)ccc2c1C(C)=CC(C)(C)N2 [Compound 4-8, 6-(4-Cyclopropylsulfonyloxy-2-methoxyphenyl)-5-(2-methoxy-5-nitrophenoxymethyl)-2,2,4-trimethyl-1,2-dihydroquinoline]
[1]
  Emax: 78%
[2]
  Angiogenic inhibition ratio (%): 26%

## COc1cc(OC(=O)N2CCOCC2)ccc1-c1ccc2c(c1COc1cc(F)ccc1C)C(C)=CC(C)(C)N2 [Compound 6-31, 5-(5-Fluoro-2-methylphenoxymethyl)-6-[2-methoxy-4-(morpholin-4-ylcarbonyloxy)phenyl]-2,2,4-trimethyl-1,2-dihydroquinoline]
[1]
  Emax: 86%
[2]
  Angiogenic inhibition ratio (%): 45%

## COc1cc(OC(=O)c2ccncc2)ccc1-c1ccc2c(c1COc1cc(F)ccc1C)C(C)=CC(C)(C)N2 [Compound 1-33, 5-(5-Fluoro-2-methylphenoxymethyl)-6-[2-methoxy-4-(pyridin-4-ylcarbonyloxy)phenyl]-2,2,4-trimethyl-1,2-dihydroquinoline]
[1]
  Emax: 82%
[2]
  Angiogenic inhibition ratio (%): 29%

## COc1cc(OC(=O)c2ccncc2F)ccc1-c1ccc2c(c1COc1cc(F)ccc1C)C(C)=CC(C)(C)N2 [Compound 1-69, 5-(5-Fluoro-2-methylphenoxymethyl)-6-[4-(3-fluoropyridin-4-ylcarbonyloxy)-2-methoxyphenyl]-2,2,4-trimethyl-1,2-dihydroquinoline]
[1]
  Emax: 72%

## COc1cc(OC(=O)c2ccccc2F)ccc1-c1ccc2c(c1COc1cc(F)ccc1C)C(C)=CC(C)(C)N2 [Compound 1-45, 6-[4-(2-Fluorobenzoyloxy)-2-methoxyphenyl]-5-(5-fluoro-2-methylphenoxymethyl)-2,2,4-trimethyl-1,2-dihydroquinoline]
[1]
  Emax: 77%

## COc1cc(OC(=O)N(C)C)ccc1-c1ccc2c(c1COc1cc(F)ccc1C)C(C)=CC(C)(C)N2 [Compound 6-3, 6-(4-Dimethylaminocarbonyloxy-2-methoxyphenyl)-5-(5-fluoro-2-methylphenoxymethyl)-2,2,4-trimethyl-1,2-dihydroquinoline]
[1]
  Emax: 83%
[2]
  Angiogenic inhibition ratio (%): 38%

## CCCC(=O)Oc1ccc(-c2ccc3c(c2COc2cc(F)ccc2C)C(C)=CC(C)(C)N3)c(OC)c1 [Compound 1-9, 6-(4-Butyryloxy-2-methoxyphenyl)-5-(5-fluoro-2-methylphenoxymethyl)-2,2,4-trimethyl-1,2-dihydroquinoline]
[1]
  Emax: 79%
[2]
  Angiogenic inhibition ratio (%): 31%

## COc1ccc(OC(=O)c2cccnc2)cc1-c1ccc2c(c1COc1cc(F)ccc1C)C(C)=CC(C)(C)N2 [Compound 1-19, 5-(5-Fluoro-2-methylphenoxymethyl)-6-[2-methoxy-5-(pyridin-3-ylcarbonyloxy)phenyl]-2,2,4-trimethyl-1,2-dihydroquinoline]
[1]
  Emax: 78%
[2]
  Angiogenic inhibition ratio (%): 30%

## COc1cc(OC(=O)Cc2ccccc2)ccc1-c1ccc2c(c1COc1cc(F)ccc1C)C(C)=CC(C)(C)N2 [Compound 1-15, 5-(5-Fluoro-2-methylphenoxymethyl)-6-(2-methoxy-4-phenylacetoxyphenyl)-2,2,4-trimethyl-1,2-dihydroquinoline]
[1]
  Emax: 77%

## COc1cc(OC(=O)c2ccccc2OC(C)=O)ccc1-c1ccc2c(c1COc1cc(F)ccc1C)C(C)=CC(C)(C)N2 [Compound 1-36, 6-[4-(2-Acetoxybenzoyloxy)-2-methoxyphenyl]-5-(5-fluoro-2-methylphenoxymethyl)-2,2,4-trimethyl-1,2-dihydroquinoline]
[1]
  Emax: 75%

## CCCCS(=O)(=O)Oc1ccc(-c2ccc3c(c2COc2cc(F)ccc2C)C(C)=CC(C)(C)N3)c(OC)c1 [Compound 4-6, 6-(4-Butylsulfonyloxy-2-methoxyphenyl)-5-(5-fluoro-2-methylphenoxymethyl)-2,2,4-trimethyl-1,2-dihydroquinoline]
[1]
  Emax: 82%

## CCS(=O)(=O)Oc1ccc(-c2ccc3c(c2COc2cc([N+](=O)[O-])ccc2C)C(C)=CC(C)(C)N3)c(OC)c1 [Compound 4-11, 6-(4-Ethylsulfonyloxy-2-methoxyphenyl)-5-(2-methyl-5-nitrophenoxymethyl)-2,2,4-trimethyl-1,2-dihydroquinoline]
[1]
  Emax: 75%

## COc1ccccc1NCc1c(-c2ccc(OC(=O)c3cccnc3C)cc2OC)ccc2c1C(C)=CC(C)(C)N2 [Compound 1-91, 6-[2-Methoxy-4-(2-methylpyridin-3-ylcarbonyloxy)phenyl]-5-(2-methoxyphenylaminomethyl)-2,2,4-trimethyl-1,2-dihydroquinoline]
[1]
  Emax: 92%

## COc1cc(OC(=O)c2occc2C)ccc1-c1ccc2c(c1COc1cc(F)ccc1C)C(C)=CC(C)(C)N2 [Compound 1-57, 5-(5-Fluoro-2-methylphenoxymethyl)-6-[2-methoxy-4-(3-methylfuran-2-ylcarbonyloxy)phenyl]-2,2,4-trimethyl-1,2-dihydroquinoline]
[1]
  Emax: 86%

## COc1ccccc1NCc1c(-c2ccc(OC(=O)c3ccccc3SC)cc2OC)ccc2c1C(C)=CC(C)(C)N2 [Compound 1-111]
[1]
  Emax: 81%

## COc1cc(OC(=O)c2ccncc2)ccc1-c1ccc2c(c1CNc1cc(F)ccc1C)C(C)=CC(C)(C)N2 [Compound 1-119, 5-(5-Fluoro-2-methylphenylaminomethyl)-6-[2-methoxy-4-(pyridin-4-ylcarbonyloxy)phenyl]-2,2,4-trimethyl-1,2-dihydroquinoline]
[1]
  Emax: 75%

## COc1ccccc1NCc1c(-c2ccc(OC(=O)c3ccccc3Cl)cc2OC)ccc2c1C(C)=CC(C)(C)N2 [Compound 1-99, 6-[4-(2-Chlorobenzoyloxy)-2-methoxyphenyl]-5-(2-methoxyphenylaminomethyl)-2,2,4-trimethyl-1,2-dihydroquinoline]
[1]
  Emax: 89%
